Data: patent publication US20210330611A1, “THERAPY FOR NEUROLOGICAL DISEASES/DISORDERS” (priority 2020, published 2021)
Counter-ions that a name gives are not always drawn. Like-named read-outs stand apart in the source and are kept apart here.

Legend:
[1] = test system: fibrin-induced microglia activation; assay: Image-based assay of fibrin-induced microglia activation (HTS and dose response); assay type: cell-based, rat; details: for inhibition at 10 µM / Fibrin % inhibition: primary microglia HTS, fibrin stimulation; for inhibition at 10 µM: read-out: Fibrin % inhibition
[2] = test system: LPS-induced microglia activation; assay: Image-based assay of LPS-induced microglia activation (HTS and dose response); assay type: cell-based, rat; details: for inhibition at 10 µM / LPS % inhibition: primary microglia HTS, LPS stimulation; for inhibition at 10 µM: read-out: LPS % inhibition
[3] = test system: fibrin- and LPS-induced microglia activation; assay: cells; assay type: cell-based, rat
[4] = test system: primary rat microglia; assay: Cell toxicity (dead cells, size <150 μm2) in LPS assay; details: for LPS % cell toxicity: primary microglia HTS, LPS stimulation; for IC50: read-out: Cell Toxicity IC50 (uM) [LPS assay]
[5] = test system: primary rat microglia; assay: Cell toxicity (dead cells, size <150 μm2) in coated fibrin (cFib) assay; details: for Fibrin % cell toxicity: primary microglia HTS, fibrin stimulation; for IC50: read-out: Cell Toxicity IC50 (uM) [cFib assay];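 for Fibrin % cell toxicity: share of dead cells sized under 150 µm2 at 10 µM in fibrin-stimulated microglia HTS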
[6] = Rattus norvegicus, Microglia, increased cell size (>800 μm^2) as marker of activation
[7] = Rattus norvegicus, Microglia, 48 h, increased cell size (>800 μm^2) as marker of activation
[8] = quadrant by fibrin and LPS inhibition in HTS of 1907 compounds
[9] = decreased size (<150 μm^2) as marker of toxicity
[10] = increased cell size (>800 μm^2) as marker of activation
[11] = Rattus norvegicus, Microglia, activation = cell size >800 μm2
[12] = Rattus norvegicus, Microglia, 48 h, activation = cell size >800 μm2

## C[C@H]1O[C@@H](O[C@H]2CC[C@@]3(C)[C@H](CC[C@@H]4[C@@H]3C[C@@H](O)[C@]3(C)[C@@H](C5=CC(=O)OC5)CC[C@]43O)C2)C[C@H](O)[C@@H]1O[C@H]1C[C@H](O)[C@H](O[C@H]2C[C@H](O)[C@H](O[C@@H]3O[C@H](CO)[C@@H](O)[C@H](O)[C@H]3O)[C@@H](C)O2)[C@@H](C)O1 [Deslanoside]
[1]; [6]
  inhibition at 10 µM: -3%
[2]; [7]
  inhibition at 10 µM: 67%
[3]; [8]
  Quadrant (FIG. 5b): Q1
[4]; [9]
  LPS % cell toxicity: 1%
[5]; [9]
  Fibrin % cell toxicity: 1%

## CC1(C)O[C@@H]2C[C@H]3[C@@H]4CCC5=CC(=O)C=C[C@]5(C)[C@H]4[C@@H](O)C[C@]3(C)[C@]2(C(=O)CO)O1 [Desonide]
[1]; [6]
  inhibition at 10 µM: 108%
[2]; [7]
  inhibition at 10 µM: 112%
[3]; [8]
  Quadrant (FIG. 5b): Q2
[4]; [9]
  LPS % cell toxicity: 5%
[5]; [9]
  Fibrin % cell toxicity: 17%

## C[C@@H]1C[C@H]2[C@@H]3CCC4=CC(=O)C=C[C@]4(C)[C@@]3(F)[C@@H](O)C[C@]2(C)[C@H]1C(=O)CO [Desoximetasone]
[1]; [6]
  inhibition at 10 µM: 101%
[2]; [7]
  inhibition at 10 µM: 91%
[3]; [8]
  Quadrant (FIG. 5b): Q2
[4]; [9]
  LPS % cell toxicity: 3%
[5]; [9]
  Fibrin % cell toxicity: 5%

## C[C@@H]1C[C@H]2[C@@H]3CCC4=CC(=O)C=C[C@]4(C)[C@@]3(F)[C@@H](O)C[C@]2(C)[C@H]1C(=O)CO [Desoxymetasone]
[1]; [10]
  Fibrin % inhibition: 108%
[2]; [10]
  LPS % inhibition: 105%
[3]; [8]
  Quadrant (FIG. 5b): Q2
[4]; [9]
  LPS % cell toxicity: 3%
[5]; [9]
  Fibrin % cell toxicity: 3%

## CCCCC[C@H](O)/C=C/[C@H]1[C@H](O)CC(=O)[C@@H]1C/C=C\CCCC(=O)O [Dinoprostone]
[1]; [6]
  inhibition at 10 µM: 102%
[2]; [7]
  inhibition at 10 µM: 85%
[3]; [8]
  Quadrant (FIG. 5b): Q2
[4]; [9]
  LPS % cell toxicity: 2%
[5]; [9]
  Fibrin % cell toxicity: 9%

## Cc1c(N(C)CS(=O)(=O)[O-])c(=O)n(-c2ccccc2)n1C.[Na+] [Dipyrone]
[1]; [10]
  Fibrin % inhibition: 106%
[2]; [10]
  LPS % inhibition: 101%
[3]; [8]
  Quadrant (FIG. 5b): Q2
[4]; [9]
  LPS % cell toxicity: 36%
[5]; [9]
  Fibrin % cell toxicity: 26%

## CCn1cc(C(=O)O)c(=O)c2cc(F)c(N3CCNCC3)nc21 [Enoxacin]
[1]; [6]
  inhibition at 10 µM: 113%
[2]; [7]
  inhibition at 10 µM: 119%
[3]; [8]
  Quadrant (FIG. 5b): Q2
[4]; [9]
  LPS % cell toxicity: 12%
[5]; [9]
  Fibrin % cell toxicity: 84%

## COC(=O)[C@@H]1CC2=CC(=O)CC[C@]2(C)[C@@]23O[C@@H]2C[C@@]2(C)[C@@H](CC[C@@]24CCC(=O)O4)[C@H]13 [Eplerenore, reference compound]
[1]
  Fibrin Selectivity: 8
  Fibrin Selectivity (LOG10): 0.88
[1]; Table 1, dose response 0.001-20 μM, triplicates, primary rat microglia, 48 h, read-out: Fibrin IC50
  IC50: 3 µM
[1]; Table 3, read-out: Fibrin IC50 (uM) (Suppl. Table 7)
  IC50: 3 µM
[1]; dose response, fibrin-induced microglia activation, read-out: Fibrin IC50
  IC50: 3 µM
[1]; fibrin-induced microglia activation, dose response, read-out: Fibrin IC50 (uM) (Suppl. Table 7)
  IC50: 3 µM
[1]; [10]
  Fibrin % inhibition: 63%
[2]; LPS-induced microglia activation, dose response, read-out: LPS IC50 (uM) (Suppl. Table 7)
  IC50: > 20 µM
[2]; Table 1, dose response 0.001-20 μM, triplicates, primary rat microglia, 48 h, read-out: LPS IC50
  IC50: > 20 µM
[2]; Table 3, read-out: LPS IC50 (uM) (Suppl. Table 7)
  IC50: > 20 µM
[2]; dose response, LPS-induced microglia activation, read-out: LPS IC50
  IC50: > 20 µM
[2]; [10]
  LPS % inhibition: 69%
[3]; HTS hit classification
  Hit: HIT (Hits were defined as molecules that exhibited greater than 50% inhibition of either fibrin or LPS activation)
[3]; HTS of 1907 compounds, quadrant by fibrin and LPS inhibition
  Quadrant (FIG. 5b): Q2
[3]; Table 1, screen at 10 μM
  Quadrant (FIG. 5b): Q2
[3]; Table 3
  Cherry-picked Hit (Suppl. Table 7): HIT (Hits were defined as molecules that exhibited greater than 50% inhibition of either fibrin or LPS activation)
[3]; Table 3, screen at 10 μM
  Quadrant (FIG. 5b): Q2
[3]; hit classification in microglia HTS
  Cherry-picked Hit (Suppl. Table 7): HIT (Hits were defined as molecules that exhibited greater than 50% inhibition of either fibrin or LPS activation)
[3]; [8]
  Quadrant (FIG. 5b): Q2
[4]; [9]
  LPS % cell toxicity: 2%
[4]; LPS assay
  IC50: > 20 µM
[4]; Table 3
  IC50: > 20 µM
[5]; [9]
  Fibrin % cell toxicity: 2%
[5]; Table 3
  IC50: > 20 µM
[5]; cFib assay
  IC50: > 20 µM

## C[CH2][Hg][S]c1ccccc1C(=O)O [Ethylmercurithiosalicylic acid]
[1]; [10]
  Fibrin % inhibition: 109%
[2]; [10]
  LPS % inhibition: 127%
[3]; [8]
  Quadrant (FIG. 5b): Q2
[4]; [9]
  LPS % cell toxicity: 95%
[5]; [9]
  Fibrin % cell toxicity: 92%

## CC(NCCC(c1ccccc1)c1ccccc1)c1ccccc1 (centres unmarked) [Fendiline hydrochloride, reference compound]
[1]; Rattus norvegicus, Microglia, Table 7, read-out: fib_IC50
  IC50: 1.75 µM
[1]; [6]
  inhibition at 10 µM: -33%
[2]; [7]
  inhibition at 10 µM: 10%
[2]; Rattus norvegicus, Microglia, Table 7, read-out: LPS_IC50
  IC50: 0.9 µM
[3]; Table 2, screen at 10 μM
  Quadrant (FIG. 5b): Q4
[3]; Table 7, fib = fibrin, LPS, tox = toxicity
  Activity: fib/LPS
[3]; [8]
  Quadrant (FIG. 5b): Q4
[4]; [9]
  LPS % cell toxicity: 0%
[5]; [9]
  Fibrin % cell toxicity: 1%

## CC(C)(Oc1ccc(C(=O)c2ccc(Cl)cc2)cc1)C(=O)O [Fenofibric Acid]
[1]; [11]
  inhibition at 10 µM: 6%
[2]; [12]
  inhibition at 10 µM: 9%
[3]; [8]
  Quadrant (FIG. 5b): Q4
[4]; toxicity = cell size <150 μm2
  LPS % cell toxicity: 0%
[5]; toxicity = cell size <150 μm2
  Fibrin % cell toxicity: 1%

## CC(C(=O)O)c1cccc(Oc2ccccc2)c1 (centres unmarked) [Fenoprofen]
[1]; [11]
  inhibition at 10 µM: -7%
[2]; [12]
  inhibition at 10 µM: -4%
[3]; [8]
  Quadrant (FIG. 5b): Q4
[4]; toxicity = cell size <150 μm2
  LPS % cell toxicity: 0%
[5]; toxicity = cell size <150 μm2
  Fibrin % cell toxicity: 0%

## CC1=C(/C=C/C(C)=C/C=C/C(C)=C/C(=O)Nc2ccc(O)cc2)C(C)(C)CCC1 [Fenretinide]
[1]; [11]
  inhibition at 10 µM: -42%
[2]; [12]
  inhibition at 10 µM: 35%
[3]; [8]
  Quadrant (FIG. 5b): Q4
[4]; toxicity = cell size <150 μm2
  LPS % cell toxicity: 0%
[5]; toxicity = cell size <150 μm2
  Fibrin % cell toxicity: 0%

## O=C1NCC2(CCN(CCc3ccccc3)CC2)O1 [Fenspiride]
[1]; [11]
  inhibition at 10 µM: -43%
[2]; [12]
  inhibition at 10 µM: -1%
[3]; [8]
  Quadrant (FIG. 5b): Q4
[4]; toxicity = cell size <150 μm2
  LPS % cell toxicity: 0%
[5]; toxicity = cell size <150 μm2
  Fibrin % cell toxicity: 1%

## O=C(COc1ccc(Cl)cc1)N1CCN(Cc2ccc3c(c2)OCO3)CC1 [Fipexide Hydrochloride]
[1]; [11]
  inhibition at 10 µM: -15%
[2]; [12]
  inhibition at 10 µM: 11%
[3]; [8]
  Quadrant (FIG. 5b): Q4
[4]; toxicity = cell size <150 μm2
  LPS % cell toxicity: 0%
[5]; toxicity = cell size <150 μm2
  Fibrin % cell toxicity: 0%

## N#Cc1nn(-c2c(Cl)cc(C(F)(F)F)cc2Cl)c(N)c1[S+]([O-])C(F)(F)F (centres unmarked) [Fipronil]
[1]; [11]
  inhibition at 10 µM: -5%
[2]; [12]
  inhibition at 10 µM: 12%
[3]; [8]
  Quadrant (FIG. 5b): Q4
[4]; toxicity = cell size <150 μm2
  LPS % cell toxicity: 0%
[5]; toxicity = cell size <150 μm2
  Fibrin % cell toxicity: 1%

## CC1(C)OC(=O)C(OCC2CC2)=C1c1ccc(S(C)(=O)=O)cc1 [Firocoxib]
[1]; [11]
  inhibition at 10 µM: -10%
[2]; [12]
  inhibition at 10 µM: 11%
[3]; [8]
  Quadrant (FIG. 5b): Q4
[4]; toxicity = cell size <150 μm2
  LPS % cell toxicity: 1%
[5]; toxicity = cell size <150 μm2
  Fibrin % cell toxicity: 1%

## O=C(NCC1CCCCN1)c1cc(OCC(F)(F)F)ccc1OCC(F)(F)F (centres unmarked) [Flecainide]
[1]; [11]
  inhibition at 10 µM: -35%
[2]; [12]
  inhibition at 10 µM: 5%
[3]; [8]
  Quadrant (FIG. 5b): Q4
[4]; toxicity = cell size <150 μm2
  LPS % cell toxicity: 0%
[5]; toxicity = cell size <150 μm2
  Fibrin % cell toxicity: 0%

## CS(=O)(=O)c1ccc([C@@H](O)[C@@H](CF)NC(=O)C(Cl)Cl)cc1 [Florfenicol]
[1]; [11]
  inhibition at 10 µM: -12%
[2]; [12]
  inhibition at 10 µM: 16%
[3]; [8]
  Quadrant (FIG. 5b): Q4
[4]; toxicity = cell size <150 μm2
  LPS % cell toxicity: 1%
[5]; toxicity = cell size <150 μm2
  Fibrin % cell toxicity: 1%
